# Laboratory results published in patent US6043231A, “Inhibition of excessive phospholipase A2 activity and/or production by non-antimicrobial tetracyclines” (The Research Foundation of State Univ. of New York, priority 1993, dated 2000).
# Target: T1, recombinant human PLA2 (snpPLA2) (Homo sapiens, UniProt P14555)
# T1 sequence (P14555 21-144): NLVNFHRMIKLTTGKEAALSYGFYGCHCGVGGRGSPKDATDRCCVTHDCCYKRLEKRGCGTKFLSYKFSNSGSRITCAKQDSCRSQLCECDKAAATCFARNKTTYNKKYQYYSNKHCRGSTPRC
# Test: PLA2 inhibition, radiolabelled E. coli assay, recombinant human PLA2
# Assay type: biochemical
# Conditions: concentrations of 25 μg/ml or greater
# Method: (§1) Six different chemically-modified tetracyclines, including CMT-1 (4-dedimethylaminotetracycline), CMT-2 (tetracyclinonitrile), CMT-3 (6-demethyl-6-deoxy-4-de-dimethylaminotetracycline), CMT-4 (4-de-dimethylamino-7-chloro-tetracycline), CMT-5 (pyrazole analog) and CMT-6 (4-hydroxy-4-dedimethylaminotetracycline), were examined for their ability to inhibit PLA2 activity in vitro. The sources of PLA2 that were tested included recombinant human PLA2, human pancreatic and porcine pancreatic PLA2 and Naja naja PLA2. […] Various concentrations of CMTs, ranging from 5-100 μg/ml, were preincubated with the different PLA2 enzymes for 30 minutes and the mixture was tested for PLA2 activity using a known E. coli assay method (see Arthritis and Rheumatism, 34 Supp. 9: p. S160 (abst C167)).
# (§2) A chemically-modified tetracycline, 4-dedimethyl-amino-7-dimethylaminotetracycline (CMT-10), was examined for its ability to inhibit PLA2 activity in vitro. The sources of PLA2 that were tested included were recombinant human PLA2 (snpPLA2), human pancreatic and porcine pancreatic PLA2 and Naja naja PLA2. […] Various concentrations of CMT-10, ranging from 5-100 μg/ml, were preincubated with the different PLA2 enzymes for 30 minutes and the mixture was tested for PLA2 activity using a known E. coli assay method (see Arthritis and Rheumatism, 34 Supp. 9: p. S160 (abst C167)).
# (§3) In particular, [^14 C]Oleic acid-labelled Escherichia coli (strain K12 C600) were used as the substrate. This substrate has been characterized with respect to phospholipid composition and distribution of radiolabel. Reaction mixtures contained 10 mg bovine serum albumin, 2 mM CaCl2, 2.8×10^8 radiolabelled E. coli and 0.1 M Tris-HCl buffer, pH 7.5 in a total volume of 1.5 ml. Reaction mixtures were incubated at 37° C. for 30 min. The reaction was terminated by filtration through a 0.45 μm Millipore filter, thereby retaining unhydrolysed E. coli membranes, and allowing the [^14 C]oleic acid bound to the BSA carrier, released as a result of PLA2 hydrolysis, to pass through the filter. Assays were performed in duplicate and values shown represent the mean of two determinations with a SD<5% of the mean. Assays were performed in substrate excess and enzyme activities were corrected for non-enzymatichydrolysis. One unit of PLA2 activity is defined as the hydrolysis of 56 pmol of phospholipid substrate (representing 1% of total E. coli phospholipid) in 30 min at 37° C.
row,SMILES,PLA2-inhibitory activity
1,"NC(=O)C1=C(O)C2(O)C(=O)C3=C(O)c4c(O)cccc4CC3CC2CC1=O (stereo not drawn) [CMT-3, 6-demethyl-6-deoxy-4-de-dimethylaminotetracycline]",exhibited significant PLA2 -inhibitory activity
2,"CC1(O)c2cccc(O)c2C(=O)C2=C(O)C3(O)C(=O)C(C(N)=O)=C(O)CC3CC21 (stereo not drawn) [CMT-1, 4-dedimethylaminotetracycline]",exhibited significant PLA2 -inhibitory activity
3,"CN(C)c1ccc(O)c2c1C(C)(O)C1CC3CC(O)=C(C(N)=O)C(=O)C3(O)C(O)=C1C2=O (stereo not drawn) [CMT-10, 4-dedimethylamino-7-dimethylaminotetracycline]",exhibited significant PLA2 -inhibitory activity
4,"CC1(O)c2cccc(O)c2C(=O)C2=C(O)C3(O)C(=O)C(C(N)=O)=C(O)C(O)C3CC21 (stereo not drawn) [CMT-6, 4-hydroxy-4-dedimethylaminotetracycline]",exhibited significant PLA2 -inhibitory activity
5,"CC1(O)c2c(Cl)ccc(O)c2C(=O)C2=C(O)C3(O)C(=O)C(C(N)=O)=C(O)CC3CC21 (stereo not drawn) [CMT-4, 4-de-dimethylamino-7-chloro-tetracycline]",exhibited significant PLA2 -inhibitory activity

# Same assay, conditions: highest concentrations tested (range 5-100 μg/ml)
row,SMILES,PLA2-inhibitory activity
1,"CN(C)C1C(=O)C(C#N)=C(O)C2(O)C(=O)C3=C(O)c4c(O)cccc4C(C)(O)C3CC12 (stereo not drawn) [CMT-2, tetracyclinonitrile]",lacked any PLA2 -inhibitory activity

# Same assay, conditions: recombinant human PLA2; 30 min preincubation
row,SMILES,IC50 (concentration of the drug required to inhibit 50% of PLA2)
1,"CC1(O)c2cccc(O)c2C(=O)C2=C(O)C3(O)C(=O)C(C(N)=O)=C(O)CC3CC21 (stereo not drawn) [CMT-1, 4-dedimethylaminotetracycline]",37 µg/mL
2,"CN(C)c1ccc(O)c2c1C(C)(O)C1CC3CC(O)=C(C(N)=O)C(=O)C3(O)C(O)=C1C2=O (stereo not drawn) [CMT-10, 4-dedimethylamino-7-dimethylaminotetracycline]",30 µg/mL
3,"CC1(O)c2cccc(O)c2C(=O)C2=C(O)C3(O)C(=O)C(C(N)=O)=C(O)C(O)C3CC21 (stereo not drawn) [CMT-6, 4-hydroxy-4-dedimethylaminotetracycline]",17 µg/mL
4,"CC1(O)c2c(Cl)ccc(O)c2C(=O)C2=C(O)C3(O)C(=O)C(C(N)=O)=C(O)CC3CC21 (stereo not drawn) [CMT-4, 4-de-dimethylamino-7-chloro-tetracycline]",42 µg/mL

# Same assay, conditions: recombinant human PLA2; 30 min preincubation; read-out: IC50 (concentration of the drug required to inhibit 50% of PLA2) (converted)
row,IC50,SMILES
1,75.4 µM,"NC(=O)C1=C(O)C2(O)C(=O)C3=C(O)c4c(O)cccc4CC3CC2CC1=O (stereo not drawn) [CMT-3, 6-demethyl-6-deoxy-4-de-dimethylaminotetracycline]"

# Target: T2, porcine pancreatic PLA2 (Sus scrofa, UniProt P00592)
# T2 construct: labelled E. coli membrane substrate
# T2 sequence (P00592 23-146): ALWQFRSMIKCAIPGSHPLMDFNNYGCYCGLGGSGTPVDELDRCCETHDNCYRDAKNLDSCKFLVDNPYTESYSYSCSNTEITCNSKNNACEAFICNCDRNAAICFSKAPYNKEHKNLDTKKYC
# Test: PLA2 inhibition, E. coli assay, porcine pancreatic PLA2
# Assay type: biochemical
# Conditions: not given
# Method: as §1, §2, §3
row,SMILES,inhibition of porcine pancreatic PLA2
1,"NC(=O)C1=C(O)C2(O)C(=O)C3=C(O)c4c(O)cccc4CC3CC2CC1=O (stereo not drawn) [CMT-3, 6-demethyl-6-deoxy-4-de-dimethylaminotetracycline]",found to inhibit
2,"CC1(O)c2cccc(O)c2C(=O)C2=C(O)C3(O)C(=O)C(C(N)=O)=C(O)CC3CC21 (stereo not drawn) [CMT-1, 4-dedimethylaminotetracycline]",found to inhibit
3,"CC1(O)c2cccc(O)c2C(=O)C2=C(O)C3(O)C(=O)C(C(N)=O)=C(O)C(O)C3CC21 (stereo not drawn) [CMT-6, 4-hydroxy-4-dedimethylaminotetracycline]",found to inhibit
4,"CC1(O)c2c(Cl)ccc(O)c2C(=O)C2=C(O)C3(O)C(=O)C(C(N)=O)=C(O)CC3CC21 (stereo not drawn) [CMT-4, 4-de-dimethylamino-7-chloro-tetracycline]",found to inhibit

# Target: T3, human pancreatic PLA2 (Homo sapiens, UniProt P04054)
# T3 construct: labelled E. coli membrane substrate
# T3 sequence (P04054 23-148): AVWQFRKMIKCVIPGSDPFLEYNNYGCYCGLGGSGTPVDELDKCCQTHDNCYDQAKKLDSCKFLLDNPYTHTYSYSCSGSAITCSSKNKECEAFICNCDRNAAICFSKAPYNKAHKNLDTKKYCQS
# Test: PLA2 inhibition, E. coli assay, human pancreatic PLA2
# Assay type: biochemical
# Conditions: not given
# Method: as §1, §2, §3
row,SMILES,inhibition of human pancreatic PLA2
1,"NC(=O)C1=C(O)C2(O)C(=O)C3=C(O)c4c(O)cccc4CC3CC2CC1=O (stereo not drawn) [CMT-3, 6-demethyl-6-deoxy-4-de-dimethylaminotetracycline]",found to inhibit
2,"CC1(O)c2cccc(O)c2C(=O)C2=C(O)C3(O)C(=O)C(C(N)=O)=C(O)CC3CC21 (stereo not drawn) [CMT-1, 4-dedimethylaminotetracycline]",found to inhibit
3,"CN(C)c1ccc(O)c2c1C(C)(O)C1CC3CC(O)=C(C(N)=O)C(=O)C3(O)C(O)=C1C2=O (stereo not drawn) [CMT-10, 4-dedimethylamino-7-dimethylaminotetracycline]",found to inhibit
4,"CC1(O)c2cccc(O)c2C(=O)C2=C(O)C3(O)C(=O)C(C(N)=O)=C(O)C(O)C3CC21 (stereo not drawn) [CMT-6, 4-hydroxy-4-dedimethylaminotetracycline]",found to inhibit
5,"CC1(O)c2c(Cl)ccc(O)c2C(=O)C2=C(O)C3(O)C(=O)C(C(N)=O)=C(O)CC3CC21 (stereo not drawn) [CMT-4, 4-de-dimethylamino-7-chloro-tetracycline]",found to inhibit

# Same assay, conditions: 30 μg/ml; human pancreatic PLA2
row,SMILES,% inhibition
1,"CN(C)c1ccc(O)c2c1C(C)(O)C1CC3CC(O)=C(C(N)=O)C(=O)C3(O)C(O)=C1C2=O (stereo not drawn) [CMT-10, 4-dedimethylamino-7-dimethylaminotetracycline]",66%
